Measured values from PMC9848257, “Design and synthesis of novel rigid dibenzo[b,f]azepines through ring closure technique as promising anticancer candidates against leukaemia and acting as selective topoisomerase II inhibitors and DNA intercalators” (Journal of Enzyme Inhibition and Medicinal Chemistry, 2023).

What was measured:
SK-MEL-28 = assay: NCI-60 one-dose screen, SK-MEL-28; assay type: cell-based; conditions: Homo sapiens; SK-MEL-28, melanoma; single dose 10 μM; read-out: Growth inhibition %
Experimental: (§1) Anti-proliferative effects of the counterparts 4a–g and 5a–g were screened against 60 human cancer cell lines, following the Developmental Therapeutics Program protocol, National Cancer Institute[35].
(§2) The anti-tumour activity of the fourteen synthesised congeners was investigated at the NCI against a panel of 60 cancer cell lines (NCI-60 Cell One-Dose Screen). The tested dibenzo[b,f]azepine derivatives were screened at a single dose level (10 μM), Table 1.

IGROV1 = assay: NCI-60 one-dose screen, IGROV1; assay type: cell-based; conditions: Homo sapiens, IGROV-1; IGROV1, ovarian cancer; single dose 10 μM; read-out: Growth inhibition %
Experimental: as §1, §2

DU-145 = assay: NCI-60 one-dose screen, DU-145; assay type: cell-based; conditions: Homo sapiens; DU-145, prostate cancer; single dose 10 μM; read-out: Growth inhibition %
Experimental: as §1, §2

CAKI-1 = assay: NCI-60 one-dose screen, CAKI-1; assay type: cell-based; conditions: Homo sapiens; CAKI-1, renal cancer; single dose 10 μM; read-out: Growth inhibition %
Experimental: as §1, §2

RPMI-8226 = assay: NCI-60 one-dose screen, RPMI-8226; assay type: cell-based; conditions: Homo sapiens; RPMI-8226, leukaemia; single dose 10 μM; read-out: Growth inhibition %
Experimental: as §1, §2

SK-MEL-2 = assay: NCI-60 one-dose screen, SK-MEL-2; assay type: cell-based; conditions: Homo sapiens; SK-MEL-2, melanoma; single dose 10 μM; read-out: Growth inhibition %
Experimental: as §1, §2

topoisomerase II = assay: Topoisomerase II inhibitory assay; assay type: biochemical; conditions: for IC50: in vitro, doxorubicin co-assayed as reference
Experimental: Therefore, following the procedure reported by Patra et al., the topoisomerase II activity was evaluated.

SR = assay: NCI-60 one-dose screen, SR; assay type: cell-based; conditions: Homo sapiens, leukaemia, single dose 10 μM, read-out: Growth inhibition %
Experimental: as §1, §2

OVCAR-4 = assay: NCI-60 one-dose screen, OVCAR-4; assay type: cell-based; conditions: Homo sapiens; OVCAR-4, ovarian cancer; single dose 10 μM; read-out: Growth inhibition %
Experimental: as §1, §2

OVCAR-3 = assay: NCI-60 one-dose screen, OVCAR-3; assay type: cell-based; conditions: Homo sapiens; OVCAR-3, ovarian cancer; single dose 10 μM; read-out: Growth inhibition %
Experimental: as §1, §2

MDA-MB-435 = assay: NCI-60 one-dose screen, MDA-MB-435; assay type: cell-based; conditions: Homo sapiens; MDA-MB-435, melanoma; single dose 10 μM; read-out: Growth inhibition %
Experimental: as §1, §2

UO-31 = assay: NCI-60 one-dose screen, UO-31; assay type: cell-based; conditions: Homo sapiens; UO-31, renal cancer; single dose 10 μM; read-out: Growth inhibition %
Experimental: as §1, §2

KM12 = assay: NCI-60 one-dose screen, KM12; assay type: cell-based; conditions: Homo sapiens; KM12, colon cancer; single dose 10 μM; read-out: Growth inhibition %
Experimental: as §1, §2

SW-620 = assay: NCI-60 one-dose screen, SW-620; assay type: cell-based; conditions: Homo sapiens; SW-620, colon cancer; single dose 10 μM; read-out: Growth inhibition %
Experimental: as §1, §2

NCI-H226 = assay: NCI-60 one-dose screen, NCI-H226; assay type: cell-based; conditions: Homo sapiens; NCI-H226, non-small cell lung cancer; single dose 10 μM; read-out: Growth inhibition %
Experimental: as §1, §2

HCT-116 = assay: NCI-60 one-dose screen, HCT-116; assay type: cell-based; conditions: Homo sapiens; HCT-116, colon cancer; single dose 10 μM; read-out: Growth inhibition %
Experimental: as §1, §2

SNB-19 = assay: NCI-60 one-dose screen, SNB-19; assay type: cell-based; conditions: Homo sapiens; SNB-19, CNS cancer; single dose 10 μM; read-out: Growth inhibition %
Experimental: as §1, §2

SK-OV-3 = assay: NCI-60 one-dose screen, SK-OV-3; assay type: cell-based; conditions: Homo sapiens; SK-OV-3, ovarian cancer; single dose 10 μM; read-out: Growth inhibition %
Experimental: as §1, §2

A549-ATCC = assay: NCI-60 one-dose screen, A549-ATCC; assay type: cell-based; conditions: Homo sapiens, non-small cell lung cancer, single dose 10 μM, read-out: Growth inhibition %
Experimental: as §1, §2

SF-268 = assay: NCI-60 one-dose screen, SF-268; assay type: cell-based; conditions: Homo sapiens; SF-268, CNS cancer; single dose 10 μM; read-out: Growth inhibition %
Experimental: as §1, §2

NCI/ADR-RES = assay: NCI-60 one-dose screen, NCI/ADR-RES; assay type: cell-based; conditions: Homo sapiens, ovarian cancer, single dose 10 μM, read-out: Growth inhibition %
Experimental: as §1, §2

MALME-3M = assay: NCI-60 one-dose screen, MALME-3M; assay type: cell-based; conditions: Homo sapiens, melanoma, single dose 10 μM, read-out: Growth inhibition %
Experimental: as §1, §2

HCC-2998 = assay: NCI-60 one-dose screen, HCC-2998; assay type: cell-based; conditions: Homo sapiens; HCC-2998, colon cancer; single dose 10 μM; read-out: Growth inhibition %
Experimental: as §1, §2

TK-10 = assay: NCI-60 one-dose screen, TK-10; assay type: cell-based; conditions: Homo sapiens; TK-10, renal cancer; single dose 10 μM; read-out: Growth inhibition %
Experimental: as §1, §2

HT29 = assay: NCI-60 one-dose screen, HT29; assay type: cell-based; conditions: Homo sapiens, HT-29; HT29, colon cancer; single dose 10 μM; read-out: Growth inhibition %
Experimental: as §1, §2

Compound	inhibition at 10 µM (SK-MEL-28) [%]	inhibition at 10 µM (IGROV1) [%]	inhibition at 10 µM (DU-145) [%]	inhibition at 10 µM (CAKI-1) [%]	inhibition at 10 µM (RPMI-8226) [%]	inhibition at 10 µM (SK-MEL-2) [%]	inhibition at 10 µM (SR) [%]	inhibition at 10 µM (OVCAR-4) [%]	inhibition at 10 µM (OVCAR-3) [%]	inhibition at 10 µM (MDA-MB-435) [%]	inhibition at 10 µM (UO-31) [%]	inhibition at 10 µM (KM12) [%]	inhibition at 10 µM (SW-620) [%]	inhibition at 10 µM (NCI-H226) [%]	inhibition at 10 µM (HCT-116) [%]	inhibition at 10 µM (SNB-19) [%]	inhibition at 10 µM (SK-OV-3) [%]	inhibition at 10 µM (A549-ATCC) [%]	inhibition at 10 µM (SF-268) [%]	inhibition at 10 µM (NCI/ADR-RES) [%]	further results
C1=Cc2ccccc2N(c2nnc(-c3ccccc3)o2)c2ccccc21 [Compound 5a, 2-(5 h-Dibenzo[b,f]azepin-5-yl)-5-phenyl-1,3,4-oxadiazole]	28	< 10	12.4	< 10	67.7	< 10	< 10	< 10	< 10	< 10	39.4	< 10	< 10	< 10	54.2	33.2	< 10	< 10	< 10	< 10	IC50 (topoisomerase II): 15.6 µM; inhibition at 10 µM (MALME-3M): < 10%; inhibition at 10 µM (HCC-2998): 33.4%; inhibition at 10 µM (TK-10): 16.1%; inhibition at 10 µM (HT29): < 10%
C1=Cc2ccccc2N(c2nnc(Cc3ccccc3)o2)c2ccccc21 [Compound 5g, 2-Benzyl-5-(5H-dibenzo[b,f]azepin-5-yl)-1,3,4-oxadiazole]	< 10	< 10	16.3	< 10	27.8	< 10	17.6	< 10	12.3	< 10	30.7	< 10	19.7	< 10	31.4	< 10	< 10	24.7	10.7	< 10	IC50 (topoisomerase II): 18.9 µM; inhibition at 10 µM (MALME-3M): < 10%; inhibition at 10 µM (HCC-2998): < 10%; inhibition at 10 µM (TK-10): 21.1%; inhibition at 10 µM (HT29): < 10%
Cc1ccc(C(=O)NNC(=O)N2c3ccccc3C=Cc3ccccc32)cc1 [Compound 4d, N′-(4-Methylbenzoyl)-5H-dibenzo[b,f]azepine-5-carbohydrazide]	< 10	< 10	< 10	< 10	< 10	< 10	< 10	< 10	< 10	< 10	< 10	< 10	< 10	< 10	< 10	< 10	< 10	< 10	< 10	< 10	inhibition at 10 µM (MALME-3M): < 10%; inhibition at 10 µM (HCC-2998): < 10%; inhibition at 10 µM (TK-10): 10.3%; inhibition at 10 µM (HT29): < 10%
O=C(NNC(=O)N1c2ccccc2C=Cc2ccccc21)c1ccc(Br)cc1 [Compound 4b, N′-(4-Bromobenzoyl)-5H-dibenzo[b,f]azepine-5-carbohydrazide]	< 10	< 10	19.7	< 10	< 10	< 10	< 10	< 10	< 10	< 10	< 10	< 10	11.8	< 10	< 10	< 10	< 10	18.5	15.1	< 10	inhibition at 10 µM (MALME-3M): < 10%; inhibition at 10 µM (HCC-2998): < 10%; inhibition at 10 µM (TK-10): < 10%; inhibition at 10 µM (HT29): < 10%
C1=Cc2ccccc2N(c2nnc(-c3ccc4ccccc4c3)o2)c2ccccc21 [Compound 5f, 2-(5 h-Dibenzo[b,f]azepin-5-yl)-5-(naphthalen-2-yl)-1,3,4-oxadiazole]	< 10	29.1	< 10	33.1	12.1	< 10	58.4	< 10	2.22	< 10	24.7	< 10	< 10	21.4	27.3	< 10	< 10	28.2	21.9	12.1	Percentage of topoisomerase II inhibition (topoisomerase II; at the concentration of 100 µM (Figure 3A)): 88%; IC50 (topoisomerase II): 9.56 µM; inhibition at 10 µM (MALME-3M): < 10%; inhibition at 10 µM (HCC-2998): < 10%; inhibition at 10 µM (TK-10): 20.3%; inhibition at 10 µM (HT29): < 10%
Clc1ccc(-c2nnc(N3c4ccccc4C=Cc4ccccc43)o2)cc1 [Compound 5c, 2-(4-Chlorophenyl)-5-(5H-dibenzo[b,f]azepin-5-yl)-1,3,4-oxadiazole]	< 10	19.2	< 10	28.5	19.2	< 10	67.5	22.1	< 10	< 10	33.8	18.5	< 10	27.5	47.7	11.2	< 10	20.3	24.7	14.5	IC50 (topoisomerase II): 31.8 µM; inhibition at 10 µM (MALME-3M): < 10%; inhibition at 10 µM (HCC-2998): < 10%; inhibition at 10 µM (TK-10): < 10%; inhibition at 10 µM (HT29): < 10%
O=C(NNC(=O)N1c2ccccc2C=Cc2ccccc21)c1ccc2ccccc2c1 [Compound 4f, N′-(2-Naphthoyl)-5H-dibenzo[b,f]azepine-5-carbohydrazide]	< 10	< 10	< 10	< 10	< 10	< 10	12.8	< 10	< 10	< 10	12	< 10	< 10	< 10	< 10	< 10	< 10	< 10	< 10	< 10	inhibition at 10 µM (MALME-3M): < 10%; inhibition at 10 µM (HCC-2998): < 10%; inhibition at 10 µM (TK-10): < 10%; inhibition at 10 µM (HT29): 11.4%
